This note sets out measurements from US20240343855A1, “PROCESS FOR THE PREPARATION OF POLYCARBODIIMIDES WITH AZIRIDINE FUNCTIONS, WHICH MAY BE USED AS CROSSLINKING AGENT” (Stahl International B.V., priority 2021, published 2024).

Each structure is given as a SMILES string.

In one series the test system is Rtkn-GFP reporter. Type of series: cell-based, mouse. Particulars: 24 h exposure; in absence and presence of S9. An excerpt: (§1) The genotoxicity can be measured by the ToxTracker® assay (Toxys, Leiden, The Netherlands) as further described herein. The ToxTracker® assay can be applied for pure substances or for compositions. The ToxTracker assay is a panel of six validated GFP-based mouse embryonic stem (mES) reporter cell lines that can be used to identify the biological reactivity and potential carcinogenic properties of newly developed compounds in a single test. ToxTracker is a mammalian stem cell-based assay that monitors activation of specific cellular signalling pathways for detection of the biological reactivity of compounds. In contrast to the cancer-derived cell lines that are currently used for in vitro genotoxicity testing, stem cells are genetically stable and proficient in all cellular pathways required for accurate detection of potentially carcinogenic properties of compounds. Extensive whole-genome transcription profiling has led to identification of a panel of biomarker genes that are preferentially activated upon exposure to different classes of carcinogens and toxicants. […] A compound is considered not genotoxic when it induces a smaller than 2-fold increase in GFP expression in any of the reporters measured by the ToxTracker® assay (Toxys, Leiden, The Netherlands).
(§2) The genotoxicity was measured by the ToxTracker® assay (Toxys, Leiden, The Netherlands), which can be applied for pure substances or for compositions. […]
(§3) The six independent mES reporter cell lines were seeded in gelatin-coated 96-well cell culture plates in 200 μl mES cell medium (50.000 cells per well). […] Induction of the GFP reporters was determined after 24 h exposure using a flow cytometer. Only GFP expression in intact single cells was determined. Mean GFP fluorescence was measured and used to calculate GFP reporter induction compared to a vehicle control treatment. Cytotoxicity was estimated by cell count after 24 h exposure using a flow cytometer and was expressed as percentage of intact cells after 24 h exposure compared to vehicle exposed controls. […]

The next series concerns Bscl2-GFP reporter. Type of series: cell-based, mouse. As to conditions: 24 h exposure; in absence and presence of S9.
Source text: as §1, §2, §3

Another series concerns Btg2-GFP reporter. It is filed as cell-based, mouse. Particulars: 24 h exposure; in absence and presence of S9.
Source text: as §1, §2, §3

The test system of series [1] is GFP-based mouse embryonic stem (mES) reporter cell lines. Particulars: ToxTracker; positive = at least 2 fold increase in GFP expression in any reporter.
Source text: The genotoxicity can be measured by the ToxTracker® assay (Toxys, Leiden, The Netherlands) as further described herein. The ToxTracker® assay can be applied for pure substances or for compositions. The ToxTracker assay is a panel of six validated GFP-based mouse embryonic stem (mES) reporter cell lines that can be used to identify the biological reactivity and potential carcinogenic properties of newly developed compounds in a single test. ToxTracker is a mammalian stem cell-based assay that monitors activation of specific cellular signalling pathways for detection of the biological reactivity of compounds. […] A compound is considered not genotoxic when it induces a smaller than 2-fold increase in GFP expression in any of the reporters measured by the ToxTracker® assay (Toxys, Leiden, The Netherlands).
as §2
The six independent mES reporter cell lines were seeded in gelatin-coated 96-well cell culture plates in 200 μl mES cell medium (50.000 cells per well). […] Induction of the GFP reporters was determined after 24 h exposure using a flow cytometer. Only GFP expression in intact single cells was determined. Mean GFP fluorescence was measured and used to calculate GFP reporter induction compared to a vehicle control treatment. […]

Regarding `O=C(CCN1CC1)OCC(CO)(COC(=O)CCN1CC1)COC(=O)CCN1CC1` [CL-427, 1-Aziridinepropanoic acid, 1,1′-[2-[[3-(1-aziridinyl)-1-oxopropoxy]methyl]-2-(hydroxymethyl)-1,3-propanediyl]ester], the “activation of the Rtkn-GFP reporter” value in the series on Rtkn-GFP reporter is reported as “activated”. Moreover, in the series with Bscl2-GFP reporter, the “activation of the Bscl2-GFP reporter” value is reported as “activated”. Further, the “activation of the Btg2-GFP reporter” value with Btg2-GFP reporter is given as “activated”. The genotoxicity conclusion entry in series [1] is “considered genotoxic”.
